This is an account of results in US6500840B2, “Quinuclidine-substituted heteroaryl moieties for treatment of disease” (Pharmacia & Upjohn Company, priority 2000, dated 2002).

“And” between values parts separate entries of the source, which are not always exact repeats. Equal values may be shown once. Where a name gives a salt, the structure may show the parent alone.

By Ki is commonly meant a measure of affinity in units of concentration, obtained from inhibition or displacement.

Sequence of α7 nAChR (Rattus norvegicus, UniProt Q05941) (Q05941 23-502): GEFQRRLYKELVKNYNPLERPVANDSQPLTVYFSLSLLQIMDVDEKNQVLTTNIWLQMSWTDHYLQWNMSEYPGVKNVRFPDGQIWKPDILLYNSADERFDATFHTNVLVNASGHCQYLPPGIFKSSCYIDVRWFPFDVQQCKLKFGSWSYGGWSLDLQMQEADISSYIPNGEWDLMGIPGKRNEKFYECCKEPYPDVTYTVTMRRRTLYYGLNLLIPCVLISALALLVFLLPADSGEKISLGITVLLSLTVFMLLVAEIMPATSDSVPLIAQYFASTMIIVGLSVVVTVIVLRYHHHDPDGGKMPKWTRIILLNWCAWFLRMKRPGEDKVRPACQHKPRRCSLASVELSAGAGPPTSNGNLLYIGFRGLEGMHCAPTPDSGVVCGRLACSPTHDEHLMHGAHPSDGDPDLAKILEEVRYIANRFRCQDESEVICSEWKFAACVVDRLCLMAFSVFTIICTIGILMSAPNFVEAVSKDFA

The first experiment addresses α7 nAChR (Rattus norvegicus, UniProt Q05941). Briefly: [3H]-MLA competition binding assay, rat brain membranes. To be noted: Ki, inhibition of [3H]-MLA binding (3.0 to 4.0 nM), Sprague-Dawley rat whole brain minus cerebellum homogenate, 1 hour at 25° C.
Description: Membrane Preparation. Male Sprague-Dawley rats (300-350 g) are sacrificed by decapitation and the brains (whole brain minus cerebellum) are dissected quickly, weighed and homogenized in 9 volumes/g wet weight of ice-cold 0.32 M sucrose using a rotating pestle on setting 50 (10 up and down strokes). The homogenate is centrifuged at 1,000×g for 10 minutes at 4° C. The supernatant is collected and centrifuged at 20,000×g for 20 minutes at 4° C. The resulting pellet is resuspended to a protein concentration of 1-8 mg/mL. Aliquots of 5 mL homogenate are frozen at −80° C. until needed for the assay.
Binding Assay. […] Filters are pre-soaked in 50 mm Tris HCl pH 7.0-0.05% polyethylenimine. The filters are rapidly washed two times with 5 mL aliquots of cold 0.9% saline and then counted for radioactivity by liquid
Data Analysis. […] Hill coefficients were obtained using non-linear regression (GraphPad Prism sigmoidal dose-response with variable slope).
In turn, `COc1cccc(-c2ccc(C(=O)N[C@H]3CN4CCC3CC4)o2)c1` [Example 119, N-[(3R)-1-azabicyclo[2.2.2]oct-3-yl]-5-(3-methoxyphenyl)-furan-2-carboxamide 4-methylbenzenesulfonate] registered a Ki of 415 to 560 nM.

The compound `O=C(N[C@H]1CN2CCC1CC2)c1ccc(-c2cccc(OC(F)(F)F)c2)o1` [Example 120, N-[(3R)-1-azabicyclo[2.2.2]oct-3-yl]-5-[3-(trifluoromethoxy)phenyl]-furan-2-carboxamide 4-methylbenzenesulfonate] registered a Ki of 1050 nM.

As for `Cc1cc(C(=O)N[C@H]2CN3CCC2CC3)oc1C` [Example 128, N-[(3R)-1-azabicyclo[2.2.2]oct-3-yl]-4,5-dimethyl-furan-2-carboxamide hydrochloride], the Ki lay in the range of 6 to 7 nM.

For the compound `Cc1ccc(-c2ccc(C(=O)N[C@H]3CN4CCC3CC4)o2)c([N+](=O)[O-])c1` [Example 130, N-[(3R)-1-azabicyclo[2.2.2]oct-3-yl]-5-(4-methyl-2-nitrophenyl)-furan-2-carboxamide hydrochloride], the Ki was 420 to 565 nM and 330 to 410 nM.

Compound `O=C(N[C@H]1CN2CCC1CC2)c1ccc(-c2ccc(F)c(F)c2)o1` [Example 132, N-[(3R)-1-azabicyclo[2.2.2]oct-3-yl]-5-(3,4-difluorophenyl)-furan-2-carboxamide hydrochloride] showed a Ki of 875 to 2080 nM.

The compound `O=C(N[C@H]1CN2CCC1CC2)c1ccc(-c2cc(F)cc(F)c2)o1` [Example 133, N-[(3R)-1-azabicyclo[2.2.2]oct-3-yl]-5-(3,5-difluorophenyl)-furan-2-carboxamide hydrochloride] came in with an inhibitory constant (Ki) of 30 to 70 nM.

`COc1ccc(-c2ccc(C(=O)N[C@H]3CN4CCC3CC4)o2)cc1` [Example 134, N-[(3R)-1-azabicyclo[2.2.2]oct-3-yl]-5-(4-methoxy-phenyl)-furan-2-carboxamide hydrochloride] yielded a Ki of 60 to 100 nM.

`Cc1ccccc1-c1ccc(C(=O)N[C@H]2CN3CCC2CC3)o1` [Example 135, N-[(3R)-1-azabicyclo[2.2.2]oct-3-yl]-5-(2-methylphenyl)-furan-2-carboxamide 4-methylbenzenesulfonate]: the inhibition constant (Ki) was 16 to 45 nM.

On to `Cc1cccc(-c2ccc(C(=O)N[C@H]3CN4CCC3CC4)o2)c1` [Example 136, N-[(3R)-1-azabicyclo[2.2.2]oct-3-yl]-5-(3-methylphenyl)-furan-2-carboxamide 4-methylbenzenesulfonate], for which the Ki lay in the range of 15 to 20 nM.

On to `O=C(N[C@H]1CN2CCC1CC2)c1ccc(-c2ccccc2OC(F)(F)F)o1` [Example 138, N-[(3R)-1-azabicyclo[2.2.2]oct-3-yl]-5-[2-(trifluoromethoxy)phenyl]-furan-2-carboxamide 4-methylbenzenesulfonate], for which the inhibition constant Ki was in the range of 525 to 590 nM.

`CC(C)(C)c1ccc(-c2ccc(C(=O)N[C@H]3CN4CCC3CC4)o2)cc1` [Example 140, N-[(3R)-1-azabicyclo[2.2.2]oct-3-yl]-5-(4-tert-butylphenyl)-furan-2-carboxamide 4-methylbenzenesulfonate]: the Ki fell in the range of 35 to 65 nM.

Compound `O=C(N[C@H]1CN2CCC1CC2)c1ccc(-c2cc3ccccc3s2)o1` [Example 141, N-[(3R)-1-azabicyclo[2.2.2]oct-3-yl]-5-(1-benzothien-2-yl)-furan-2-carboxamide 4-methylbenzenesulfonate] displayed an inhibitory constant (Ki) of 260 to 275 nM.

Compound `O=C(N[C@H]1CN2CCC1CC2)c1ccc(-c2cc3ccccc3o2)o1` [Example 146, N-[(3R)-1-azabicyclo[2.2.2]oct-3-yl]-5-(1-benzofuran-2-yl)-furan-2-carboxamide 4-methylbenzenesulfonate] registered an inhibition constant Ki of 35 to 140 nM.

For the compound `Nc1ccccc1-c1ccc(C(=O)N[C@H]2CN3CCC2CC3)o1` [Example 147, 5-(2-Aminophenyl)-N-[(3R)-1-azabicyclo[2.2.2]oct-3-yl]-furan-2-carboxamide bis(4-Methylbenzenesulfonate)], the inhibition constant (Ki) was 2 to 3 nM.

Compound `O=C(N[C@H]1CN2CCC1CC2)c1ccc(C#Cc2ccccc2)o1` [Example 150, N-[(3R)-1-Azabicyclo[2.2.2]oct-3-yl]-5-(phenylethynyl)-furan-2-carboxamide 4-Methylbenzenesulfonate] displayed an inhibitory constant (Ki) of 290 to 330 nM.

Compound `O=C(N[C@H]1CN2CCC1CC2)c1ccc(Oc2ccccc2)o1` [Example 151, N-[(3R)-1-Azabicyclo[2.2.2]oct-3-yl]-5-phenoxy-furan-2-carboxamide 4-Methylbenzenesulfonate] registered a Ki of 225 to 835 nM.

Compound `Cn1c(C(=O)N[C@H]2CN3CCC2CC3)ccc1-c1ccccc1` [Example 152, N-[(3R)-1-Azabicyclo[2.2.2]oct-3-yl]-1-methyl-5-phenyl-1H-pyrrole-2-carboxamide] displayed a Ki of 20 to 65 nM.

For the compound `O=C(N[C@H]1CN2CCC1CC2)c1ncc(-c2ccccc2)o1` [Example 153, N-[(3R)-1-azabicyclo[2.2.2]oct-3-yl]-5-phenyl-1,3-oxazole-2-carboxamide 4-methylbenzenesulfonate], the inhibition constant (Ki) amounted to 1550 nM. This counts as single-digit micromolar.

`O=C(N[C@H]1CN2CCC1CC2)c1nc(-c2ccccc2)no1` [Example 154, N-[(3R)-1-azabicyclo[2.2.2]oct-3-yl]-3-phenyl-1,2,4-oxadiazole-5-carboxamide 4-methylbenzenesulfonate] returned a Ki greater than 1000 nM.

`O=C(N[C@H]1CN2CCC1CC2)c1cnc(-c2ccccc2)o1` [Example 155, N-[(3R)-1-azabicyclo[2.2.2]oct-3-yl]-2-phenyl-1,3-oxazole-5-carboxamide 4-methylbenzenesulfonate] registered a Ki of 1380 nM.

The target in the next experiment is T1, 5HT3R (Homo sapiens, UniProt P46098).
T1 sequence (P46098 24-478): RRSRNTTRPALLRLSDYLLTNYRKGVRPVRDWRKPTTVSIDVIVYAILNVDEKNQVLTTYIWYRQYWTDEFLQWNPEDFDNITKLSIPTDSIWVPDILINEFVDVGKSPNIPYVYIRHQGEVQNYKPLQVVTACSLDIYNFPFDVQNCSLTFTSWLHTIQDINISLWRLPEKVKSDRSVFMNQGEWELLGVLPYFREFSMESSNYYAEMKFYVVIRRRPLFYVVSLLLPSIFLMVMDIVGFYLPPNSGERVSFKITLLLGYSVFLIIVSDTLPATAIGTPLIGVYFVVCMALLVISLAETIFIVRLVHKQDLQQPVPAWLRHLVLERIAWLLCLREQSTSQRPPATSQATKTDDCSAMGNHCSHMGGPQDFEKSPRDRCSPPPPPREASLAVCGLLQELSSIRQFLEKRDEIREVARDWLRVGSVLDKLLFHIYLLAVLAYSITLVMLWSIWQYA
Assay: not given
Conditions: cited from earlier work.
On to `COc1ccc(/C=C2\CCCN=C2c2cccnc2)c(OC)c1` [GTS-21], for which the “activity at the 5HT3R” value is listed as “little activity”.

A further experiment deals with α7 nAChR (Homo sapiens, UniProt P36544).
Sequence of α7 nAChR (Homo sapiens, UniProt P36544) (P36544 23-502): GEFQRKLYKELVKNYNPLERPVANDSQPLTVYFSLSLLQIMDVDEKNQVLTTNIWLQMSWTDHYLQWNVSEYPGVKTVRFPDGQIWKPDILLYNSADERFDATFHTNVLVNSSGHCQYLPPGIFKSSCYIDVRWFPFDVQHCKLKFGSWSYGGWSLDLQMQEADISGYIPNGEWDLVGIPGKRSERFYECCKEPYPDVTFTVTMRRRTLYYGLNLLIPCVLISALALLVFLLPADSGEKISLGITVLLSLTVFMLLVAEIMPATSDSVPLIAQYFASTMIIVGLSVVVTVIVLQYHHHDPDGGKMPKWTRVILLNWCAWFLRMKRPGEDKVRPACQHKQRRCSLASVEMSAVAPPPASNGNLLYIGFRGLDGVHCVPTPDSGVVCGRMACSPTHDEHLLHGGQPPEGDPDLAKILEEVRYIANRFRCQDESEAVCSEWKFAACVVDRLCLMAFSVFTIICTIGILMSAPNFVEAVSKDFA
Assay: not given
To be noted: cited from earlier work.
As for `Cc1nccn1CC1CCc2c(c3ccccc3n2C)C1=O` (stereo not shown) [Ondansetron], the “activity at the α7 nAChR” value is “little activity”.
